Reference: US4347319A, “Microbiological epoxidation process” (priority 1980, dated 1982)

Test system: P(40) particulate fraction of Methylosinus sp. (CRL-15, NRRL B-11,202)
Test: Effect of metals on propylene epoxidation and methane hydroxylation
Format: biochemical
Details: metal 10^-3 M; P(40) fraction; control 4.0
Protocol: (§1) The oxidation of methane and propylene by particulate [(P)40 and (P)80] fractions and soluble [S(80)] fraction was measured at 30° C. by estimating the production of methanol and propylene oxide, respectively. The reaction mixtures contained in […]: 150 mM potassium phosphate buffer, pH 7.0 containing 5 mM MgCl2 b, 0.6 ml; 10μ moles NADH, and cellular fraction.
(§2) Reaction mixtures were contained in 10 ml vials at 4° C. Vials were sealed with rubber caps. The gaseous phase in the vials was removed using vacuum and then was replaced with a gas mixture of methane or propylene and oxygen at a 1:1, v/v ratio. Oxidation of other gaseous n-alkanes and n-alkanes was examined as described above. For liquid substrates, 10 μl of substrate was used directly.
Since the methane mono-oxygenase from methane-utlizing bacteria is a copper or iron-containing protein (Tonge et al., J. Biochem., 161: 333-344 (1977)), we have examined the effect of copper and iron salts on the oxidation of methane and propylene by the P(40) particulate fraction of Methylosinus sp. (CRL-15, NRRL B-11,202). The rate of hydroxylation of methane to methanol and epoxidation of propylene to propylene oxide was increased twofold in the presence of added copper salts (Table XII).

Compound	Methane-Oxidizing Activity
[Cl][Cu] [Cuprous Chloride]	7.2 μmoles/hr/mg protein
[Cl][Fe]([Cl])[Cl] [Ferric Chloride]	4.8 μmoles/hr/mg protein
Ferrous Sulfate	4.8 μmoles/hr/mg protein

Same assay, conditions: metal 10^-3 M; P(40) fraction; control […]

Compound	Propylene-Oxidizing Activity
[Cl][Cu] [Cuprous Chloride]	9.2 μmoles/hr/mg protein
[Cl][Fe]([Cl])[Cl] [Ferric Chloride]	5.8 μmoles/hr/mg protein
Ferrous Sulfate	5.9 μmoles/hr/mg protein

Test system: purified secondary alcohol dehydrogenase (SADH) from Pseudomonas sp. ATCC 21439
Test: Kinetics and substrate specificity of purified SADH
Format: biochemical
Details: not given

Compound	oxidation by SADH
O=Cc1ccccc1 [benzaldehyde]	not oxidized
CCC(O)CO (centres unmarked) [butane 1,2-diol]	not oxidized
C=O [formaldehyde]	not oxidized
CC(C)CO [isobutanol]	not oxidized
Oc1ccccc1 [phenol]	not oxidized
O=C(O)CCC(=O)O [succinic acid]	not oxidized

Same assay, conditions: 2-butanol = 100%

Compound	relative percent rate of oxidation
CCC=O [propanal]	2%

Test system: purified secondary alcohol dehydrogenase from Pichia sp. NRRL Y-11,328
Test: Substrate specificity, electron acceptor and stoichiometry of purified yeast SADH
Format: biochemical
Details: not given

Compound	electron acceptor / carrier
cytochrome c	could not act as electron carrier

Same assay, conditions: examined spectrophotometrically

Compound	oxidation by the purified enzyme
CC(O)CO (centres unmarked) [1,2-propandiol]	not oxidized
CCCCCC(C)O (centres unmarked) [2-Heptanol]	not oxidized
CCCCCCC(C)O (centres unmarked) [2-octanol]	not oxidized
CCCCO [butan-1-ol]	not oxidized
CCC(O)CO (centres unmarked) [butane 1,2-diol]	not oxidized
CC(O)CCO (centres unmarked) [butane 1,3-diol]	not oxidized
CCO [ethanol]	not oxidized
CO [methanol]	not oxidized
CCCCCO [pentan-1-ol]	not oxidized
CCCO [propan-1-ol]	not oxidized

Test system: Methylosinus trichosporium OB3b (NRRL B-11,196)
Test: Oxidation by cell suspensions of methane-grown cells
Format: cell-based
Details: methane-grown cell-suspension; pH 7.0; 3° C.

Compound	Conversion Rate to Ethanol
CC [Ethane]	1.3 μmoles/hr./mg./protein

Test system: Methylobacter vinelandii (CRL M5Y) NRRL B-11,218
Test: Oxidation by washed cell suspensions of methane-grown cells
Format: cell-based
Details: methane-grown washed cells
Protocol: (§3) The pH of the nutrient medium was adjusted to 7.0 by the addition of acid or base and 50 ml samples of the nutrient medium were charged into a plurality of 300 ml shaker flasks. The shaker flasks were inoculated with an inoculating loop of cells from an agar plate containing homogeneous colonies of the microorganisms on the plate (the purity of the isolates was confirmed by microscopic examination. The isolates had been maintained on agar plates under an atmosphere of methane and air having a 1:1 v/v gas ratio which had been transferred evey two weeks. The gaseous phase of the inoculated flasks was then replaced with a gas mixture comprised of methane and air having a ratio of 1:1 on a v/v basis. The inoculated flasks were sealed air tight and were incubated on a rotary shaker of orbital radius 2.5 cm at 250 rpm and at 30° C. for two days until turbidity in the medium had developed.
(§4) The cells were harvested by centrifugation at 10,000×g. at 4° C. for 30 minutes. The cell pellet was washed twice with a 0.15 M phosphate buffer at a pH of 7.0 (containing 0.002 M MgCl2). The washed cells were then suspended in a 0.15 M phosphate buffer at pH 7.0.
(§5) A 0.5 ml sample of each washed cell suspension (2 mg cells) was put into 10 ml vials at 4° C. which were sealed with a rubber cap. The gaseous phase of the vials was removed with vacuum and then was replaced with a gas mixture of the oxidative substrate (e.g., methane) and oxygen at a 1:1 v/v ratio. The vials were then incubated at 30 ° C. on a rotary shaker at 300 rpm. Samples of product (3 μl) were withdrawn periodically with a microsyringe and the products were analyzed by gas chromatography (ionization flame detector column).
(§6) The newly discovered and isolated microorganism strains of the present invention were each grown aerobically in the presence of methane in the manner described above. The methane-grown microbial cells were then washed, recovered and put to use in oxidizing an oxidative substrate by the procedure described above except in the case of a liquid substrate 10 μl of the substrate were used.

Compound	conversion rate cyclohexane to cyclohexanol	oxidative conversion
C1CCCCC1 [Cyclohexane]	1.5 μ moles/2 hr./mg. protein	
c1ccccc1 [benzene]		no oxidative conversion was detected
Cc1ccccc1 [toluene]		no oxidative conversion was detected

Test system: Methylococcus capsulatus (CRL M1) NRRL B-11,219
Test: as above
Format: cell-based
Details: methane-grown cell-suspension; pH 7.0; 3° C.
Protocol: as §3, §4, §5, §6

Compound	Conversion Rate to Ethanol
CC [Ethane]	2.0 μmoles/hr./mg./protein

Target: T1, cell fractions of Methylosinus sp. (CRL-15, NRRL B-11,202) (Methylosinus trichosporium, UniProt Q50541+Q9KX50+Q9KX51)
T1 sequence (Q9KX50 40-431): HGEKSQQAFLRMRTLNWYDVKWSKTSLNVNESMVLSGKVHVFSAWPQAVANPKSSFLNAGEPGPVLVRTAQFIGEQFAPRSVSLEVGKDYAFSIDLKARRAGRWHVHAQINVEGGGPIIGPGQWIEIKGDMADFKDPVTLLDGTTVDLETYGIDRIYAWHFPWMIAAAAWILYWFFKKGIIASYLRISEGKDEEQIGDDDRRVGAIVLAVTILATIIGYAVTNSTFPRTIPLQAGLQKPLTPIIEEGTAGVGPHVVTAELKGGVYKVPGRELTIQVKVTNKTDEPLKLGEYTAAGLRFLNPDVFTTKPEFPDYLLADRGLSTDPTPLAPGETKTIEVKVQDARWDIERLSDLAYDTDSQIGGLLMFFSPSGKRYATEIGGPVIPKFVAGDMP
T1 sequence (Q50541 1-252): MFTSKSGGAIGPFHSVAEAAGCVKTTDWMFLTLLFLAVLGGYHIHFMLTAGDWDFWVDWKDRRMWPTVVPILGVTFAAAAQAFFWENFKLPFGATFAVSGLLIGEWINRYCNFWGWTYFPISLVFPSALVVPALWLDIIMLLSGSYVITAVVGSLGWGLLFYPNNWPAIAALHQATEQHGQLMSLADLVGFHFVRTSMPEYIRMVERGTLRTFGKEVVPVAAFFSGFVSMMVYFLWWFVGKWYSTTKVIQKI
T1 sequence (Q9KX51 1-256): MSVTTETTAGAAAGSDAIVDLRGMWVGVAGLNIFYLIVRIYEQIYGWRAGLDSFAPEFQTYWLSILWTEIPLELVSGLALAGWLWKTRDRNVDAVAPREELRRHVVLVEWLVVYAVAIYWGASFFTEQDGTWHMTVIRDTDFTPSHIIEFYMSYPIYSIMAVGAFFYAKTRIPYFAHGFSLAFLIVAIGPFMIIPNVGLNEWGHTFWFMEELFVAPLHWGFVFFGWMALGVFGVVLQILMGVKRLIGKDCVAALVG
Test: Oxidation by cell fractions P(40), P(80), S(80)
Format: biochemical
Details: P(40) particulate fraction; alkene to epoxide, alkane to alcohol; 30° C.
Protocol: Cells were washed twice with 25 mM potassium phosphate buffer, pH 7.0 containing 5 mM MgCl2. Cells were suspended in the same buffer. The cell suspensions at 4° C. were disintegrated by a single passage through a French Pressure cell (15,000 lb./in.^2) and centrifuged at 5000×g. for 15 min. to remove unbroken bacteria. The supernatant solution (crude extract) was then centrifuged at 40,000×g. for 30 min., yielding particulate P(40) and soluble S(40) fractions. The S(40) fraction was subsequently centrifuged at 80,000×g. for 60 min., yielding particulate P(80) and soluble S(80) fractions. The particulate fractions [P(40) and P(80)] were suspended in 25 mM potassium phosphate buffer, pH 7.0, containing 5 mM MgCl2 and homogenized at 4° C.
as §1, §2
The products of epoxidation of n-alkenes and hydroxylation of n-alkanes were assayed by flame ionization gas chromatography using a stainless steel column (12'×1/8") packed with 10% Carbowax 20 M on 80/100 Chromosorb W and Porapak Q column. The column temperature was maintained isothermally at 120° C. The carrier gas flow rate was 30 ml/min. of helium. The various products were identified by retention time comparisons and co-chromatography with authentic standards.
Specific activities were expressed as μ moles of products formed per hour per mg. protein. Concentrations of protein in various fractions were determined by the method of Lowry et al., J. Biol. Chem., 193: 265-275 (1951).

Compound	Rate of Product Formation
CC [Ethane]	3.2 μ moles/hr/mg of protein

Test system: purified secondary alcohol dehydrogenase (SADH) from Pseudomonas sp. ATCC 21439
Test: Effect of metal-chelating agents and thio reagents on purified SADH
Format: biochemical
Details: not given
Protocol: Secondary alcohol dehydrogenase (SADH) from an obligate methanol utilizer, Pseudomonas sp. ATCC 21439 was purified as follows. […] 0.05 M sodium phosphate buffer, pH 7.0 with 0.5 mM dithiothretol (buffer A) and were disrupted sonically (5×1 min.). The crude extract was separated by centrifugation. The crude extract was heat-treated at 50° C. in a water bath for 10 minutes. The resulting precipitate was removed by centrifugation. To the supernatant solution, 25 ml of protamine sulfate solution (2% solution in 0.1 M Tris base) was added dropwise with continuous stirring. After standing for 30 minutes, the extract was centrifuged. The supernatant solution was fractionated with solid ammonium sulfate. […] This DEAE-cellulose eluate was concentrated by ammonium sulfate fractionation. Material precipitating between 30 and 50% ammonium sulfate saturation was collected by centrifugation and dialyzed overnight against A. This fraction was further washed and filtered through an Amicon unit with XM 50 membrane. The concentrated fraction (6 ml) inside the Amicon unit was applied to an Affi-Gel Blue column (0.8 cm×18 cm) which had been equilibrated with buffer A for affinity chromatography. The column was washed overnight with buffer A (0.18 ml./min.) and then was eluted with buffer A containing 5 mM NAD. Each 1 ml. fraction was collected.
The purified secondary alcohol dehydrogenase enzyme (SADH) may be used directly for converting C3 -C6 secondary alcohols to the corresponding methyl ketones by the procedures described above; however, a source of NAD^+ must be added to the reaction medium. One can determine the NAD-linked secondary alcohol dehydrogenase activity with a fluorescence spectrophotometer (Perkin Elmer, Model MPF 44A) by following the formation of reduced NAD (Ex 340 nm, Em 460 nm). The assay system (3 ml.) will typically contain: sodium phosphate buffer pH 7.0, 150 μmol; NAD 1.0 μmol; a given amount of enzyme preparation; and 20 μmol secondary alcohol. The reaction is started by the addition of secondary alcohol. One unit of SADH enzyme activity represents the reduction of one nmole NAD per minute.
The effect of metal-chelating agents and chioreagents on the activity of the purified SADH enzyme were studied. […] The possibility of ethanol or n-propanol as an inhibitor was studied.

Compound	% inhibition of SADH activity	inhibition of SADH activity
O=C(O)CN(CCN(CC(=O)O)CC(=O)O)CC(=O)O [EDTA]	63%	
O=C(O)CI [iodoacetic acid]	0%	
CCCO [propan-1-ol]		did not inhibit

Same assay, conditions: final concentration of 1 mM; measured spectrofluorometrically

Compound	% inhibition of SADH activity
O=C(O)c1cc(SSc2ccc([N+](=O)[O-])c(C(=O)O)c2)ccc1[N+](=O)[O-] [5,5'-dithiobis(2-nitrobenzoic acid)]	100%
[Co+2] [Co^++]	0%
[Mg+2] [Mg^++]	0%
[Mn+2] [Mn^++]	0%
CCN1C(=O)C=CC1=O [N-ethylmalemide]	6%
[N-]=[N+]=[N-] [Sodium azide]	10%
[Zn+2] [Zn^++]	0%
[Cu+2] [cupric]	25%
[Fe+3] [ferric]	35%
[Fe+2] [ferrous]	50%
[Ni+2] [nickel]	20%
